# Measurements taken from paper PMC5632672, “Generation of Persister Cells of Pseudomonas aeruginosa and Staphylococcus aureus by Chemical Treatment and Evaluation of Their Susceptibility to Membrane-Targeting Agents” (Frontiers in Microbiology, 2017).
# Read-outs that look alike come from different tables or passages of the source. Positions of bridges follow the written chain, without caps; N, C: chain ends. Non-standard residues stand in square brackets, D forms with d. Residues, ends and D or L forms follow the SMILES beside them. *: point of attachment. X1 = CC[C@H](C)CCCCC(=O)*; Dab = NCC[C@H](N)C(=O)O
# Assays:
# [1] = tested on: Pseudomonas aeruginosa ATCC 27853; experiment: Effect of CCCP on cell viability, CFU counting; settings: P. aeruginosa stationary-phase cultures, CCCP at concentrations up to 200 μg/mL, 3 h, 37°C, Figure 1
# Protocol: (§2) Bacteria were grown in LB medium for approximately 18 h at 37°C to obtain stationary-phase cells, as assessed by monitoring bacterial growth by optical density. A volume of 1 mL of the overnight cultures was incubated with 10 μL of CCCP at different concentrations (from 25 to 400 μg/mL) for 3 h at 37°C with shaking. Bacterial cultures exposed to DMSO were used as cell viability control. Following the incubation, bacteria were washed twice in sodium-phosphate buffer (10 mM SPB, pH 7.4) by centrifugation (1700 × g for 10 min), subsequently diluted 10-fold in LB and plated on TSA to determine the number of CFU.
# [2] = tested on: Pseudomonas aeruginosa ATCC 27853; experiment: Induction of persistence with CCCP, survival to antibiotic treatment; settings: P. aeruginosa
# [3] = tested on: Staphylococcus aureus ATCC 33591; format: cell-based; settings: S. aureus, CCCP 400 μg/mL 3 h, washed, fresh LB
# [4] = tested on: Staphylococcus aureus ATCC 33591; experiment: Effect of CCCP on cell viability, CFU counting; settings: S. aureus stationary-phase cultures, CCCP at concentrations up to 400 μg/mL, 3 h, 37°C, Figure 1
# Protocol: as §2
# [5] = tested on: Staphylococcus aureus ATCC 33591; experiment: Isothermal microcalorimetry, bacterial heat production; settings: S. aureus stationary-phase culture incubated with CCCP 400 μg/mL, recorded for 24 h, Figure 3
# Protocol: The metabolic profile of CCCP-induced persisters of P. aeruginosa and S. aureus was evaluated by real-time monitoring of bacterial heat production through isothermal microcalorimetry. […] Ampoules were inserted into the calorimeter, placed in the thermal equilibration position for 15 min and then lowered into the measuring position. After 45 min of signal stabilization, measurements of the heat flow were initiated and recorded for 24 h. Data analysis was performed with the manufacturer software (TAM Assistant) and GraphPad Prism (GraphPad Software, La Jolla, CA, United States), and results were plotted as heat flow (in microwatts) or total heat (in joules) versus time.
# [6] = tested on: Staphylococcus aureus ATCC 33591; experiment: Induction of persistence with CCCP, survival to antibiotic treatment; settings: S. aureus
# [7] = tested on: Pseudomonas aeruginosa ATCC 27853; experiment: Flow cytometry, oxidoreductase activity with RedoxSensor Green; format: cell-based; settings: P. aeruginosa, 3-h exposure to CCCP 200 μg/mL, Figure 4A
# Protocol: (§1) The metabolic activity of CCCP-induced PCs of P. aeruginosa and S. aureus was also evaluated by determining the oxidoreductase activity through flow cytometry. […] Then, bacterial suspensions were stained with the RedoxSensor^TM Green reagent (RSG) (BacLight^TM RedoxSensor^TM Green Vitality Kit, Thermo Fisher Scientific, Waltham, MA, United States) according to the manufacturer’s instructions. Briefly, 1 mL of the bacterial suspension was incubated with 1 μL (P. aeruginosa) or 0.1 μL (S. aureus) of 1 mM RSG for 10 min at 37°C in the dark. Stained samples were analyzed with a BD Accuri C6 flow cytometer (BD Biosciences, Mountain View, CA, United States) equipped with a 488 nm laser and a 533/30 nm optical filter. Data were collected and analyzed with BD Accuri C6 software (BD Biosciences), and results were plotted as cell counts versus fluorescence intensity.
# [8] = tested on: Staphylococcus aureus ATCC 33591; experiment: as above; format: cell-based; settings: S. aureus, 3-h exposure to CCCP 400 μg/mL, Figure 4B
# Protocol: as §1
# [9] = tested on: Pseudomonas aeruginosa ATCC 27853; experiment: Isothermal microcalorimetry, bacterial heat production; format: cell-based; settings: P. aeruginosa stationary-phase culture incubated with CCCP 200 μg/mL, recorded for 24 h, Figure 3
# [10] = tested on: Pseudomonas aeruginosa ATCC 27853; experiment: Revival assay of CCCP-induced persisters; format: cell-based; settings: P. aeruginosa, CCCP 200 μg/mL 3 h, washed, fresh LB
# [11] = tested on: Pseudomonas aeruginosa ATCC 27853; experiment: MIC and MBC by standard microdilution after revival of CCCP-induced persisters
# [12] = tested on: Pseudomonas aeruginosa ATCC 27853
# [13] = tested on: Staphylococcus aureus ATCC 33591
# [14] = tested on: Staphylococcus aureus ATCC 33591; experiment: MIC and MBC by standard microdilution after revival of CCCP-induced persisters
# [15] = CCCP 200 μg/mL for 3 h, then meropenem 10 μg/mL 3 h, Figure 2C
# [16] = CCCP 400 μg/mL for 3 h, then gentamicin 10 μg/mL 3 h, Figure 2F
# [17] = ATCC27853, read-out: MBC, CCCP-pretreated
# [18] = ATCC27853, read-out: MBC, CCCP-untreated
# [19] = ATCC33591, 24 h, read-out: MIC, CCCP-untreated
# [20] = ATCC33591, read-out: MBC, CCCP-pretreated
# [21] = ATCC33591, read-out: MBC, CCCP-untreated
# [22] = ATCC33591, read-out: MIC, CCCP-pretreated
compound,measurement,setting,value
"N#CC(C#N)=NNc1cccc(Cl)c1 [CCCP, Carbonyl cyanide m-chlorophenylhydrazone]",effect on cell viability,[1],did not exert a significant killing effect
same,fold increase in the number of persister-like cells vs untreated control,"[2]; CCCP 200 μg/mL for 3 h, then ciprofloxacin 5 μg/mL 3 h, Figure 2A",5000 fold
same,fold increase in the percentage of bacteria tolerant to meropenem,[2]; [15],200 fold
same,percentage of starting bacterial population tolerant to meropenem after CCCP pretreatment,[2]; [15],35%
same,"lag phase before resuming replication at a normal rate, optical density","[3]; OD600, Figure 5D",approximately 1 h
same,delay in heat production after CCCP removal (time of maximum heat production),"[3]; microcalorimetry, Figure 5C",1 h
same,effect on cell viability,[4],only a minor effect on cell viability
same,basal heat production,[5],< 5 μWh
same,fold increase in survival to gentamicin,[6]; [16],approximately 500 times
same,percentage of cells becoming persisters (surviving gentamicin) after CCCP pretreatment,[6]; [16],20%
same,percentage of initial population surviving levofloxacin exposure after CCCP pretreatment,"[6]; CCCP 400 μg/mL for 3 h, then levofloxacin 2.5 μg/mL 3 h, Figure 2D",approximately 60%
same,reduction in RSG fluorescence vs untreated control,[7],approximately three
same,reduction in RSG fluorescence vs untreated control,[8],approximately three
same,basal heat production,[9],< 5 μWh
same,"lag phase before resuming replication at a normal rate, optical density","[10]; OD600, Figure 5B",approximately 1 h
same,time lag in heat production after CCCP removal (time of maximum heat production),"[10]; microcalorimetry, Figure 5A",1.5 h
O=C(O)c1cn(C2CC2)c2cc(N3CCNCC3)c(F)cc2c1=O [Ciprofloxacin],"percentage of stationary-phase culture surviving antibiotic exposure, no CCCP pretreatment","[2]; ciprofloxacin 5 μg/mL, 3 h, SPB/LB, Figure 2A",less than 0.01%
same,MIC,"[11]; ATCC27853, 24 h, read-out: MIC, CCCP-untreated",0.5 µg/mL
same,MBC,[11]; [17],1 µg/mL
same,MBC,[11]; [18],1 µg/mL
same,MIC,"[11]; ATCC27853, read-out: MIC, CCCP-pretreated",0.5 µg/mL
"CC[C@H](C)CCCCC(=O)N[C@@H](CCN)C(=O)N[C@H](C(=O)N[C@@H](CCN)C(=O)N[C@H]1CCNC(=O)[C@H]([C@@H](C)O)NC(=O)[C@H](CCN)NC(=O)[C@H](CCN)NC(=O)[C@H](CC(C)C)NC(=O)[C@@H](CC(C)C)NC(=O)[C@H](CCN)NC1=O)[C@@H](C)O [Colistin, colistin] (X1-[Dab]T[Dab][Dab][Dab][dL]L[Dab][Dab]T; lactam 4-C (inferred); N-terminus assumed)",concentration eradicating persister-enriched cultures to the limit of detection (complete killing),[12],3.5 µM
same,"MBC, P. aeruginosa CCCP-pretreated","[12]; ATCC 27853, 3 h",3.5 µM
same,"MBC, P. aeruginosa CCCP-untreated","[12]; ATCC 27853, 3 h",1.75 µM
same,fold increase in MBC against CCCP-pretreated vs CCCP-untreated bacteria,[12]; P. aeruginosa,2 fold
CCCCCCCCCC(=O)N[C@@H](Cc1c[nH]c2ccccc12)C(=O)N[C@H](CC(N)=O)C(=O)N[C@@H](CC(=O)O)C(=O)N[C@@H]1C(=O)NCC(=O)N[C@@H](CCCN)C(=O)N[C@@H](CC(=O)O)C(=O)N[C@H](C)C(=O)N[C@@H](CC(=O)O)C(=O)NCC(=O)N[C@H](CO)C(=O)N[C@@H]([C@H](C)CC(=O)O)C(=O)N[C@@H](CC(=O)c2ccccc2N)C(=O)O[C@@H]1C [Daptomycin],"MBC, S. aureus CCCP-pretreated","[13]; ATCC 33591, 3 h",112 µM
same,"MBC, S. aureus CCCP-untreated","[13]; ATCC 33591, 3 h",7 µM
same,fold higher concentration required to kill CCCP-induced persisters than untreated bacteria (MBC),[13]; S. aureus,16 fold
same,bactericidal concentration against persisters relative to those of the tested AMPs,"[13]; S. aureus CCCP-pretreated, Figure 6B",32 to 64 fold
CNC(C)C1CCC(N)C(OC2C(N)CC(N)C(OC3OCC(C)(O)C(NC)C3O)C2O)O1 (centres unmarked) [Gentamicin],MIC,[14]; [19],20 µg/mL
same,MBC,[14]; [20],40 µg/mL
same,MBC,[14]; [21],40 µg/mL
same,MIC,[14]; [22],20 µg/mL
"C[C@H]1COc2c(N3CCN(C)CC3)c(F)cc3c(=O)c(C(=O)O)cn1c23 [Levofloxacin, levofloxacin]","percentage of initial inoculum tolerating antibiotic treatment, no CCCP pretreatment","[6]; levofloxacin 2.5 μg/mL, 3 h, SPB/LB, Figure 2D",approximately 0.5%
same,MIC,[14]; [19],0.5 µg/mL
same,MBC,[14]; [20],0.5 µg/mL
same,MBC,[14]; [21],0.5 µg/mL
same,MIC,[14]; [22],0.5 µg/mL
"C[C@@H](O)[C@H]1C(=O)N2C(C(=O)O)=C(S[C@@H]3CN[C@H](C(=O)N(C)C)C3)[C@H](C)[C@H]12 [Meropenem, meropenem]",MBC,[11]; [17],10 µg/mL
same,MBC,[11]; [18],10 µg/mL
[WKKIRVRLSA]2-K-8Aoc-NH2 [Den-SB056],"MBC, S. aureus CCCP-pretreated","[13]; persister-enriched cultures (CCCP 400 μg/mL, 3 h), SPB/LB (daptomycin: deionized water with 1% LB and 75 μg/mL CaCl2), 1 × 10^6 CFU/mL, 3 h, 37°C, CFU counting",1.75 µM
same,"MBC, S. aureus CCCP-untreated","[13]; stationary-phase cultures, CCCP-untreated, SPB/LB (daptomycin: deionized water with 1% LB and 75 μg/mL CaCl2), 1 × 10^6 CFU/mL, 3 h, 37°C, CFU counting",1.75 µM
same,"MBC, P. aeruginosa CCCP-pretreated","[12]; persister-enriched cultures (CCCP 200 μg/mL, 3 h), SPB/LB, 1 × 10^6 CFU/mL, 3 h, 37°C, CFU counting",1.75 µM
same,"MBC, P. aeruginosa CCCP-untreated","[12]; stationary-phase cultures, CCCP-untreated, SPB/LB, 1 × 10^6 CFU/mL, 3 h, 37°C, CFU counting",0.87 µM
